From ChEMBL document CHEMBL3108727, “Lupane triterpenoids from the stems of Euonymus carnosus” (J Nat Prod, 2014)

What was measured:
[1] = Antiinflammatory activity in mouse BV2 cells assessed as inhibition of LPS-induced nitric oxide production after 24 hrs by Griess method; assay type: functional, cell-based; settings: BV-2, 24 h
A2780 = experiment: Cytotoxicity against human A2780 cells after 96 hrs by MTT assay; assay type: functional, cell-based; settings: A2780, 96 h
A549 = experiment: Cytotoxicity against human A549 cells after 96 hrs by MTT assay; assay type: functional, cell-based; settings: A549, 96 h
[2] = Cytotoxicity against human BGC823 cells after 96 hrs by MTT assay; assay type: functional, cell-based; settings: BGC-823, 96 h
[3] = Cytotoxicity against human Bel7402 cells after 96 hrs by MTT assay; assay type: functional, cell-based; settings: Bel-7402, 96 h
[4] = Cytotoxicity against human HCT8 cells after 96 hrs by MTT assay; assay type: functional, cell-based; settings: HCT-8, 96 h
[5] = Cytotoxicity against mouse BV2 cells assessed as cell viability by MTT assay relative to LPS-treated control; assay type: cell-based, BV-2; set-up: concentration or dose not given beside the values; settings: read-out: Activity

Row | SMILES | IC50 [1] | IC50 (A2780) | IC50 (A549) | IC50 [2] | IC50 [3] | IC50 [4] | viability [5]
1 | C=C(C)[C@@H]1CC[C@]2(CO)CC[C@]3(C)[C@H](CC[C@@H]4[C@@]5(C)CC[C@H](O)C(C)(C)[C@@H]5CC[C@]43C)[C@@H]12 [BETULIN] | > 10 µM | > 10 µM | > 10 µM | > 10 µM | > 10 µM | > 10 µM | –
2 | C=C(C)[C@@H]1CC[C@]2(C)CC[C@]3(C)[C@H](CC[C@@H]4[C@@]5(C)CC[C@H](O)C(C)(C)[C@@H]5CC[C@]43C)[C@@H]12 [LUPEOL] | > 10 µM | > 10 µM | > 10 µM | > 10 µM | > 10 µM | > 10 µM | –
3 | C[C@@H](O)[C@@H]1CC[C@]2(C)CC[C@]3(C)[C@H](CC[C@@H]4[C@@]5(C)CC[C@@H](O)C(C)(C)[C@@H]5CC[C@]43C)[C@@H]12 | 3.48 µM | > 10 µM | > 10 µM | > 10 µM | > 10 µM | > 10 µM | 94.2%
4 | CC(=O)[C@@H]1CC[C@]2(CO)CC[C@]3(C)[C@H](CC[C@@H]4[C@@]5(C)CC[C@@H](O)C(C)(C)[C@@H]5CC[C@]43C)[C@@H]12 (relative stereo) | > 10 µM | > 10 µM | > 10 µM | > 10 µM | > 10 µM | > 10 µM | –
5 | C=C(C=O)[C@@H]1CC[C@]2(C)CC[C@]3(C)[C@H](CC[C@@H]4[C@@]5(C)CC[C@@H](O)C(C)(C)[C@@H]5CC[C@]43C)[C@@H]12 | > 10 µM | > 10 µM | > 10 µM | > 10 µM | > 10 µM | > 10 µM | –
6 | CC(=O)[C@@H]1CC[C@]2(C)CC[C@]3(C)[C@H](CC[C@@H]4[C@@]5(C)CC[C@H](O)C(C)(C)[C@@H]5CC[C@]43C)[C@@H]12 | 6.09 µM | > 10 µM | > 10 µM | > 10 µM | > 10 µM | > 10 µM | 93.5%
7 | C=C(C)[C@@H]1CC[C@]2(C)CC[C@]3(C)[C@H](CC[C@@H]4[C@@]5(C)CC[C@@H](O)C(C)(C)[C@@H]5CC[C@]43C)[C@@H]12 | > 10 µM | > 10 µM | > 10 µM | > 10 µM | > 10 µM | > 10 µM | –
8 | C[C@@H](CO)[C@@H]1CC[C@]2(C)C[C@H](O)[C@]3(C)[C@H](CC[C@@H]4[C@@]5(C)CCC(=O)C(C)(C)[C@@H]5CC[C@]43C)[C@@H]12 | > 10 µM | > 10 µM | > 10 µM | > 10 µM | > 10 µM | > 10 µM | –
9 | C=C(CO)[C@@H]1CC[C@]2(C)C[C@H](O)[C@]3(C)[C@H](CC[C@@H]4[C@@]5(C)CCC(=O)C(C)(C)[C@@H]5CC[C@]43C)[C@@H]12 | > 10 µM | > 10 µM | > 10 µM | > 10 µM | > 10 µM | > 10 µM | –
10 | CC(=O)OC[C@]12CC[C@@H](C(C)=O)[C@@H]1[C@H]1CC[C@@H]3[C@@]4(C)CC[C@@H](O)C(C)(C)[C@@H]4CC[C@@]3(C)[C@]1(C)CC2 (relative stereo) | > 10 µM | > 10 µM | > 10 µM | > 10 µM | > 10 µM | > 10 µM | –
11 | C[C@@H](C(=O)O)[C@@H]1CC[C@]2(C)CC[C@]3(C)[C@H](CC[C@@H]4[C@@]5(C)CC[C@@H](O)C(C)(C)[C@@H]5CC[C@]43C)[C@@H]12 | 7.8 µM | > 10 µM | > 10 µM | > 10 µM | > 10 µM | > 10 µM | 96.8%
12 | CC(=O)O[C@@H]1CC[C@]2(C)[C@H]3CC[C@@H]4[C@H]5[C@H](C(C)=O)CC[C@]5(CO)CC[C@@]4(C)[C@]3(C)CC[C@H]2C1(C)C (relative stereo) | > 10 µM | > 10 µM | > 10 µM | > 10 µM | > 10 µM | > 10 µM | –
13 | C[C@H](C(=O)O)[C@@H]1CC[C@]2(C)CC[C@]3(C)[C@H](CC[C@@H]4[C@@]5(C)CC[C@@H](O)C(C)(C)[C@@H]5CC[C@]43C)[C@@H]12 | 7.39 µM | > 10 µM | > 10 µM | > 10 µM | > 10 µM | > 10 µM | 87.3%
14 | C=C(CO)[C@@H]1CC[C@]2(CO)CC[C@]3(C)[C@H](CC[C@@H]4[C@@]5(C)CC[C@@H](OC(C)=O)C(C)(C)[C@@H]5CC[C@]43C)[C@@H]12 | > 10 µM | > 10 µM | 3.35 µM | 4.09 µM | 2.77 µM | 3.21 µM | –
15 | CC(=O)O[C@H]1C(=O)[C@@]2(C)[C@H]([C@H](OC(=O)c3ccccc3)[C@]3(O)C[C@H](OC(=O)[C@H](O)[C@@H](NC(=O)c4ccccc4)c4ccccc4)C(C)=C1C3(C)C)[C@]1(OC(C)=O)CO[C@@H]1C[C@@H]2O [PACLITAXEL] | – | 0.59 µM | 0.032 µM | 0.026 µM | 0.011 µM | – | –
16 | CC(=O)C1=C2[C@H]3CC[C@@H]4[C@@]5(C)CC[C@@H](O)C(C)(C)[C@@H]5CC[C@@]4(C)[C@]3(C)CC[C@@]2(C)CC1=O | > 10 µM | > 10 µM | > 10 µM | > 10 µM | > 10 µM | > 10 µM | –
17 | C=C(C)[C@@H]1CC[C@]2(CO)CC[C@]3(C)[C@H](CC[C@@H]4[C@@]5(C)CC[C@@H](O)C(C)(C)[C@@H]5CC[C@]43C)[C@@H]12 [3-EPI-BETULIN] | 2.54 µM | > 10 µM | > 10 µM | > 10 µM | > 10 µM | > 10 µM | 89.3%
18 | C=C(CO)[C@@H]1CC[C@]2(C)CC[C@]3(C)[C@H](CC[C@@H]4[C@@]5(C)CC[C@@H](O)C(C)(C)[C@@H]5CC[C@]43C)[C@@H]12 | > 10 µM | > 10 µM | > 10 µM | > 10 µM | > 10 µM | > 10 µM | –
19 | C=C(C)[C@@H]1CC[C@]2(CO)CC[C@]3(C)[C@H](CC[C@@H]4[C@@]5(C)CCC(=O)C(C)(C)[C@@H]5CC[C@]43C)[C@@H]12 [BETULONE] | > 10 µM | > 10 µM | > 10 µM | > 10 µM | > 10 µM | > 10 µM | –
20 | C[C@H](C(=O)O)[C@@H]1CC[C@]2(C)CC[C@]3(C)[C@H](CC[C@@H]4[C@@]5(C)CCC(=O)C(C)(C)[C@@H]5CC[C@]43C)[C@@H]12 | > 10 µM | > 10 µM | > 10 µM | > 10 µM | > 10 µM | > 10 µM | –
21 | C=C(CO)[C@@H]1CC[C@]2(C)CC[C@]3(C)[C@H](CC[C@@H]4[C@@]5(C)CC[C@H](O)C(C)(C)[C@@H]5CC[C@]43C)[C@@H]12 | > 10 µM | > 10 µM | > 10 µM | > 10 µM | > 10 µM | > 10 µM | –
22 | C=C(CO)[C@@H]1CC[C@]2(C)CC[C@]3(C)[C@H](CC[C@@H]4[C@@]5(C)CCC(=O)C(C)(C)[C@@H]5CC[C@]43C)[C@@H]12 | > 10 µM | > 10 µM | > 10 µM | > 10 µM | > 10 µM | > 10 µM | –
23 | C[C@@H](CO)[C@@H]1CC[C@]2(C)CC[C@]3(C)[C@H](CC[C@@H]4[C@@]5(C)CCC(=O)C(C)(C)[C@@H]5C[C@H](O)[C@]43C)[C@@H]12 | > 10 µM | > 10 µM | > 10 µM | > 10 µM | > 10 µM | > 10 µM | –
24 | C=C(CO)[C@@H]1CC[C@]2(C)CC[C@]3(C)[C@H](CC[C@@H]4[C@@]5(C)CCC(=O)C(C)(C)[C@@H]5C[C@H](O)[C@]43C)[C@@H]12 | > 10 µM | > 10 µM | > 10 µM | > 10 µM | > 10 µM | > 10 µM | –
25 | COc1cc(/C=C/C(=O)CC(=O)/C=C/c2ccc(O)c(OC)c2)ccc1O [CURCUMIN] | 0.53 µM | – | – | – | – | – | 93.3%
26 | CC(=O)[C@@H]1CC[C@]2(C)CC[C@]3(C)[C@H](CC[C@@H]4[C@@]5(C)CC[C@@H](O)C(C)(C)[C@@H]5CC[C@]43C)[C@@H]12 | > 10 µM | > 10 µM | > 10 µM | > 10 µM | > 10 µM | > 10 µM | –
27 | CC(=O)O[C@@H]1CC[C@]2(C)[C@H]3CC[C@@H]4[C@H]5[C@H]([C@H](C)C(=O)O)CC[C@]5(C)CC[C@@]4(C)[C@]3(C)CC[C@H]2C1(C)C | 7.48 µM | > 10 µM | > 10 µM | > 10 µM | > 10 µM | > 10 µM | 98.5%
